How the values were obtained:
ovine COX-1 = target: T1, ovine COX-1 (Ovis aries, UniProt P05979); experiment: colorimetric peroxidase assay, TMPD oxidation at […] nm (Cayman kit); type: biochemical
T1 construct: gene PTGS1
T1 sequence (P05979 25-600): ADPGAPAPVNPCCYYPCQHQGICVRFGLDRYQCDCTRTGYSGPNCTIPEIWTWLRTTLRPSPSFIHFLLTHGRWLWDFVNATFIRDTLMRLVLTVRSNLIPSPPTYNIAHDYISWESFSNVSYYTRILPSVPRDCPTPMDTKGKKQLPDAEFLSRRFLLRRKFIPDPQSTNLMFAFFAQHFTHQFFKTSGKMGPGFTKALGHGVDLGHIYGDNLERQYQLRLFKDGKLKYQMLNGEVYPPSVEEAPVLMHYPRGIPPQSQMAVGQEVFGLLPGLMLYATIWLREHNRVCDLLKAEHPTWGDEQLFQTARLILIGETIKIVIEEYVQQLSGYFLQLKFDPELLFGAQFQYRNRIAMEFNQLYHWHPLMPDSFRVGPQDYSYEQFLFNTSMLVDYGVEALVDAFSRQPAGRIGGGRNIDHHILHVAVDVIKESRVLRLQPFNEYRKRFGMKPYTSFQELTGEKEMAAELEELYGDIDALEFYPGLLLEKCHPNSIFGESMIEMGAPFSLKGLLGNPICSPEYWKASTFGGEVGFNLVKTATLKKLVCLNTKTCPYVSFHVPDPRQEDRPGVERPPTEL

ovine COX-2 = target: T2, ovine COX-2 (Ovis aries, UniProt P79208); experiment: as above; type: biochemical; details: read-out: IC50 (μM) vs. COX / COX-1
T2 construct: gene PTGS2
T2 sequence (P79208 17-603): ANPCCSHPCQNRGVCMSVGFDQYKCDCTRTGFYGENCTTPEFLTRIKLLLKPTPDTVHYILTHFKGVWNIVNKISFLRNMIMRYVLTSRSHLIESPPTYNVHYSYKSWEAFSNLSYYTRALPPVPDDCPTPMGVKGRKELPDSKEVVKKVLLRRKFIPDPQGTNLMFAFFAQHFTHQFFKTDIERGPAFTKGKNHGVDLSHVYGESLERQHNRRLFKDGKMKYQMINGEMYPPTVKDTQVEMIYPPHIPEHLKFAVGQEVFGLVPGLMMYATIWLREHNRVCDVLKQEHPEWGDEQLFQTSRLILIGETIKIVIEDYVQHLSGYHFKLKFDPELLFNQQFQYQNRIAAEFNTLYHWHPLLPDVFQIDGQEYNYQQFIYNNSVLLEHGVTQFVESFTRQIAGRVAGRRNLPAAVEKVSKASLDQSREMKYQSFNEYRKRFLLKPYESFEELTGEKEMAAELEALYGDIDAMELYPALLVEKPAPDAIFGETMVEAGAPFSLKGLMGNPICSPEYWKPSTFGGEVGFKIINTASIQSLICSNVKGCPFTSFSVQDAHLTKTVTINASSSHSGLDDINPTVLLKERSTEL

IC50 (ovine COX-1): > 100 µM
IC50 (ovine COX-2): > 100 µM
SMILES: COc1ccc2cc1Oc1ccc(cc1)C[C@H]1c3cc(c(OC)cc3CCN1C)Oc1c(OC)c(OC)cc3c1[C@H](C2)N(C)CC3 [compound 1, (+)-tetrandrine]

Reference: PMC7999448, “Antibacterial and COX-2 Inhibitory Tetrahydrobisbenzylisoquinoline Alkaloids from the Philippine Medicinal Plant Phaeanthus ophthalmicus” (Plants, 2021)
